Test results published in the supplement of paper PMC10307832.

Key:
Assay in all cases: relative viability (nuclei count vs DMSO), 5 days (fraction); higher = more cells survive
H3255 = test system: H3255
Procedure, shortened: (§1)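 After 5 days of treatment, lung cancer cells in 1536-well plates were fixed and stained in a single step (final 0.05% Triton X-100, 1% formaldehyde, 1 ug/ml Hoechst) and their nuclei counted on 4× images. Treatment had been applied by pin tool the day after seeding as one drug alone or as a fixed anchor-drug dose with five library-drug doses (not always all listed) in √10 steps. Relative viability is the nuclei count of treated wells divided by that of vehicle wells, and values are medians of duplicate plates.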

PC-14 = test system: PC-14
Procedure, shortened: as §1

NCI-H1355 = test system: NCI-H1355
Procedure, shortened: as §1

NCI-H596 = test system: NCI-H596
Procedure, shortened: as §1

CAL-12T = test system: CAL-12T
Procedure, shortened: as §1

NCI-H1793 = test system: NCI-H1793
Procedure, shortened: as §1

NCI-H838 = test system: NCI-H838
Procedure, shortened: as §1

NCI-H2087 = test system: NCI-H2087
Procedure, shortened: as §1

NCI-H23 = test system: NCI-H23
Procedure, shortened: as §1

NCI-H1792 = test system: NCI-H1792
Procedure, shortened: as §1

UMC-11 = test system: UMC-11
Procedure, shortened: as §1

NCI-H2023 = test system: NCI-H2023
Procedure, shortened: as §1

NCI-H1651 = test system: NCI-H1651
Procedure, shortened: as §1

NCI-H2009 = test system: NCI-H2009
Procedure, shortened: as §1

NCI-H522 = test system: NCI-H522
Procedure, shortened: as §1

NCI-H358 = test system: NCI-H358
Procedure, shortened: as §1

SK-MES-1 = test system: SK-MES-1
Procedure, shortened: as §1

NCI-H1666 = test system: NCI-H1666
Procedure, shortened: as §1

A-427 = test system: A-427
Procedure, shortened: as §1

SW 1573 = test system: SW 1573
Procedure, shortened: as §1

NCI-H1437 = test system: NCI-H1437
Procedure, shortened: as §1

SMILES: C=C1C(=O)O[C@@H](CCCCCCCC)[C@@H]1C(=O)O [C-75] + Nc1nc2[nH]cc(CCc3ccc(C(=O)N[C@@H](CCC(=O)O)C(=O)O)cc3)c2c(=O)[nH]1 [Pemetrexed] (partner 0.2 µM)
- relative viability (H3255; first compound 0.08 µM): 0.588
- relative viability (H3255; first compound 0.253 µM): 0.561
- relative viability (H3255; first compound 0.8 µM): 0.577
- relative viability (H3255; first compound 2.53 µM): 0.525
- relative viability (H3255; first compound 8 µM): 0.627
- relative viability (PC-14; first compound 0.08 µM): 0.141
- relative viability (PC-14; first compound 0.253 µM): 0.146
- relative viability (PC-14; first compound 0.8 µM): 0.137
- relative viability (PC-14; first compound 2.53 µM): 0.141
- relative viability (PC-14; first compound 8 µM): 0.131
- relative viability (NCI-H1355; first compound 0.08 µM): 1.01
- relative viability (NCI-H1355; first compound 0.253 µM): 1.04
- relative viability (NCI-H1355; first compound 0.8 µM): 1.05
- relative viability (NCI-H1355; first compound 2.53 µM): 1.02
- relative viability (NCI-H1355; first compound 8 µM): 0.974
- relative viability (NCI-H596; first compound 0.08 µM): 0.503
- relative viability (NCI-H596; first compound 0.253 µM): 0.432
- relative viability (NCI-H596; first compound 0.8 µM): 0.461
- relative viability (NCI-H596; first compound 2.53 µM): 0.47
- relative viability (NCI-H596; first compound 8 µM): 0.481
- relative viability (CAL-12T; first compound 0.08 µM): 1.37
- relative viability (CAL-12T; first compound 0.253 µM): 1.45
- relative viability (CAL-12T; first compound 0.8 µM): 1.11
- relative viability (CAL-12T; first compound 2.53 µM): 1.05
- relative viability (CAL-12T; first compound 8 µM): 1.27
- relative viability (NCI-H1793; first compound 0.08 µM): 0.702
- relative viability (NCI-H1793; first compound 0.253 µM): 0.954
- relative viability (NCI-H1793; first compound 2.53 µM): 0.59
- relative viability (NCI-H1793; first compound 8 µM): 0.958
- relative viability (NCI-H838; first compound 0.08 µM): 0.224
- relative viability (NCI-H838; first compound 0.253 µM): 0.265
- relative viability (NCI-H838; first compound 0.8 µM): 0.262
- relative viability (NCI-H838; first compound 2.53 µM): 0.18
- relative viability (NCI-H838; first compound 8 µM): 0.239
- relative viability (NCI-H2087; first compound 0.08 µM): 0.695
- relative viability (NCI-H2087; first compound 0.253 µM): 0.686
- relative viability (NCI-H2087; first compound 0.8 µM): 0.616
- relative viability (NCI-H2087; first compound 2.53 µM): 0.647
- relative viability (NCI-H2087; first compound 8 µM): 0.574
- relative viability (NCI-H23; first compound 0.08 µM): 0.716
- relative viability (NCI-H23; first compound 0.253 µM): 1.03
- relative viability (NCI-H23; first compound 0.8 µM): 0.546
- relative viability (NCI-H23; first compound 2.53 µM): 0.406
- relative viability (NCI-H23; first compound 8 µM): 0.443
- relative viability (NCI-H1792; first compound 0.08 µM): 0.816
- relative viability (NCI-H1792; first compound 0.253 µM): 0.92
- relative viability (NCI-H1792; first compound 0.8 µM): 0.882
- relative viability (NCI-H1792; first compound 2.53 µM): 0.481
- relative viability (NCI-H1792; first compound 8 µM): 0.678
- relative viability (UMC-11; first compound 0.08 µM): 0.77
- relative viability (UMC-11; first compound 0.253 µM): 0.883
- relative viability (UMC-11; first compound 0.8 µM): 0.725
- relative viability (UMC-11; first compound 2.53 µM): 0.625
- relative viability (UMC-11; first compound 8 µM): 0.576
- relative viability (NCI-H2023; first compound 0.08 µM): 0.246
- relative viability (NCI-H2023; first compound 0.253 µM): 0.265
- relative viability (NCI-H2023; first compound 0.8 µM): 0.242
- relative viability (NCI-H2023; first compound 2.53 µM): 0.171
- relative viability (NCI-H2023; first compound 8 µM): 0.21
- relative viability (NCI-H1651; first compound 0.08 µM): 0.568
- relative viability (NCI-H1651; first compound 0.253 µM): 0.671
- relative viability (NCI-H1651; first compound 0.8 µM): 0.541
- relative viability (NCI-H1651; first compound 2.53 µM): 0.53
- relative viability (NCI-H1651; first compound 8 µM): 0.606
- relative viability (NCI-H2009; first compound 0.08 µM): 1.12
- relative viability (NCI-H2009; first compound 0.253 µM): 0.924
- relative viability (NCI-H2009; first compound 0.8 µM): 0.947
- relative viability (NCI-H2009; first compound 2.53 µM): 0.886
- relative viability (NCI-H2009; first compound 8 µM): 0.975
- relative viability (NCI-H522; first compound 0.08 µM): 1.02
- relative viability (NCI-H522; first compound 0.253 µM): 0.76
- relative viability (NCI-H522; first compound 0.8 µM): 0.828
- relative viability (NCI-H522; first compound 2.53 µM): 0.869
- relative viability (NCI-H522; first compound 8 µM): 0.879
- relative viability (NCI-H358; first compound 0.08 µM): 0.169
- relative viability (NCI-H358; first compound 0.253 µM): 0.185
- relative viability (NCI-H358; first compound 0.8 µM): 0.168
- relative viability (NCI-H358; first compound 8 µM): 0.189
- relative viability (SK-MES-1; first compound 0.08 µM): 0.97
- relative viability (SK-MES-1; first compound 0.253 µM): 0.911
- relative viability (SK-MES-1; first compound 0.8 µM): 0.839
- relative viability (SK-MES-1; first compound 2.53 µM): 0.766
- relative viability (SK-MES-1; first compound 8 µM): 0.919
- relative viability (NCI-H1666; first compound 0.08 µM): 0.882
- relative viability (NCI-H1666; first compound 0.253 µM): 0.828
- relative viability (NCI-H1666; first compound 0.8 µM): 0.815
- relative viability (NCI-H1666; first compound 8 µM): 0.796
- relative viability (A-427; first compound 0.08 µM): 0.949
- relative viability (A-427; first compound 0.253 µM): 0.774
- relative viability (A-427; first compound 0.8 µM): 0.813
- relative viability (A-427; first compound 2.53 µM): 0.71
- relative viability (A-427; first compound 8 µM): 0.871
- relative viability (SW 1573; first compound 0.08 µM): 0.947
- relative viability (SW 1573; first compound 0.253 µM): 0.874
- relative viability (SW 1573; first compound 0.8 µM): 0.728
- relative viability (SW 1573; first compound 2.53 µM): 0.684
- relative viability (SW 1573; first compound 8 µM): 0.706
- relative viability (NCI-H1437; first compound 0.08 µM): 0.314
- relative viability (NCI-H1437; first compound 0.253 µM): 0.324
- relative viability (NCI-H1437; first compound 0.8 µM): 0.321
- relative viability (NCI-H1437; first compound 8 µM): 0.269
